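1) Cells in 96-well plates. 2) Compound, 48 h, 5 concentrations. 3) Linear interpolation between surrounding doses. 4) Unreached endpoint = highest concentration. TGI marks complete inhibition of growth.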
tested on: OVCAR-3 ovarian; assay: inhibition of tumour cell growth, NCI panel, 48 h

Structure (SMILES) | TGI [µM]
O=CNc1ccccc1OCCOc1ccccc1NC=O | > 100
C=CCN1CCC(c2cc(C(=O)OCC)[nH]c2-c2cc(C)no2)C1=O (centres undefined) | > 100
O=c1[nH][nH]c(=O)c2c1ccc1oc3ccccc3c12 | > 100
O=C1CSC(c2ccccc2O)N1c1ccc(-n2c(-c3ccccc3)nc3ccccc3c2=O)cc1 (centres undefined) | 41.5
Cc1ccc(C(=O)Oc2ccccc2)cc1N=NN(C)C | > 100
O=C1NC2(CCNCC2)Oc2ccccc21 | > 100
Cc1c(/C=N/NC(=S)N2CCCCC2)c(=O)n(-c2ccccc2)n1C | > 100
CC(C)(C)OC(=O)CCCCCNC(=O)CCCCCNC(=O)CCC(CN(CC(=O)OCc1ccccc1)CC(=O)OCc1ccccc1)N(CC(=O)OCc1ccccc1)CC(=O)OCc1ccccc1 (centres undefined) | > 100
O=[N+]([O-])/C(Cl)=C(/C(Cl)=C(Cl)Cl)N1CCOCC1 | 4.86
CN=c1sc2nc(C#N)c(C#N)nc2n1C | 72.1
CC(C)OP(=O)(OC(C)C)C(C)(C)O | > 100
COC(=O)C(=O)Nc1cc2c3c(c1)Oc1cccc4c1C3(C)c1c(cccc1O2)O4 | > 100

tested on: OVCAR-5 ovarian; assay: inhibition of tumour cell growth, NCI panel, 48 h

Structure (SMILES) | TGI [µM]
O=C(Nc1ccccc1)OCCN=C1c2ccccc2CCc2ccccc21 | 63.5
COc1cc2cc(C(=O)N3CC(CCl)c4ccc([N+](C)(C)Cc5ccccc5[N+](=O)[O-])cc43)[nH]c2c(OC)c1OC (centres undefined) | > 31.3
CC(C)[C@H]1NC(=O)[C@H]2N=C(S[C@H]2C)[C@@H]2CCCN2C(=O)[C@H](Cc2ccccc2)NC(=O)[C@@H]2CSC(=N2)[C@@H](Cc2ccccc2)NC(=O)[C@@H]2CSC1=N2 | > 50
O=C1Oc2ccccc2C(=O)/C1=C/N1C(=O)CNC1=S | > 100
CC1=NN(c2nc(N)nc(/C(C#N)=C\c3ccc(-c4ccc([N+](=O)[O-])cc4)o3)n2)C(C)(C)C1 | > 100
COc1ccc2nc3ccc(OC)cc3c(SCCCl)c2c1 | > 40.8
CC(Oc1ccccc1Cl)C(=O)NN1C(=O)CC(=O)N(c2ccc(Cl)cc2)C1=S (centres undefined) | > 100
CC(C)[Si]1(C(C)C)OCC2OC(n3ccc(=O)[nH]c3=O)C([Se]c3ccccc3)C2O[Si](C(C)C)(C(C)C)O1 (centres undefined) | 22.8
O=C1NCN(c2ccccc2)C12CCN(CC1COc3ccccc3O1)CC2 (centres undefined) | > 100
O=C1OC([C@H](O)c2cccnc2)c2ccccc21 (some centres undefined) | > 10
CC(C)(C)OC(=O)N1CCCC1C(=O)NC(c1ccccc1)c1ccccc1 (centres undefined) | > 100
O=C1Cc2cn[nH]c2-c2ccccc2N1 | > 57.5
O=CNc1ccccc1OCCOc1ccccc1NC=O | > 100
C=CCN1CCC(c2cc(C(=O)OCC)[nH]c2-c2cc(C)no2)C1=O (centres undefined) | > 100
O=c1[nH][nH]c(=O)c2c1ccc1oc3ccccc3c12 | > 100
O=C1CSC(c2ccccc2O)N1c1ccc(-n2c(-c3ccccc3)nc3ccccc3c2=O)cc1 (centres undefined) | > 100
Cc1ccc(C(=O)Oc2ccccc2)cc1N=NN(C)C | > 100
O=C1NC2(CCNCC2)Oc2ccccc21 | > 100
Cc1c(/C=N/NC(=S)N2CCCCC2)c(=O)n(-c2ccccc2)n1C | > 100
CC(C)(C)OC(=O)CCCCCNC(=O)CCCCCNC(=O)CCC(CN(CC(=O)OCc1ccccc1)CC(=O)OCc1ccccc1)N(CC(=O)OCc1ccccc1)CC(=O)OCc1ccccc1 (centres undefined) | > 100
O=[N+]([O-])/C(Cl)=C(/C(Cl)=C(Cl)Cl)N1CCOCC1 | 22
CN=c1sc2nc(C#N)c(C#N)nc2n1C | 51.6
CC(C)OP(=O)(OC(C)C)C(C)(C)O | > 100
COC(=O)C(=O)Nc1cc2c3c(c1)Oc1cccc4c1C3(C)c1c(cccc1O2)O4 | > 100

tested on: MDA-MB-231 breast; assay: inhibition of tumour cell growth, NCI panel, 48 h

Structure (SMILES) | TGI [µM]
O=C(Nc1ccccc1)OCCN=C1c2ccccc2CCc2ccccc21 | 37.1
COc1cc2cc(C(=O)N3CC(CCl)c4ccc([N+](C)(C)Cc5ccccc5[N+](=O)[O-])cc43)[nH]c2c(OC)c1OC (centres undefined) | > 31.9
CC(C)[C@H]1NC(=O)[C@H]2N=C(S[C@H]2C)[C@@H]2CCCN2C(=O)[C@H](Cc2ccccc2)NC(=O)[C@@H]2CSC(=N2)[C@@H](Cc2ccccc2)NC(=O)[C@@H]2CSC1=N2 | > 50
O=C1Oc2ccccc2C(=O)/C1=C/N1C(=O)CNC1=S | > 100
CC1=NN(c2nc(N)nc(/C(C#N)=C\c3ccc(-c4ccc([N+](=O)[O-])cc4)o3)n2)C(C)(C)C1 | > 100
COc1ccc2nc3ccc(OC)cc3c(SCCCl)c2c1 | 99.3
CC(Oc1ccccc1Cl)C(=O)NN1C(=O)CC(=O)N(c2ccc(Cl)cc2)C1=S (centres undefined) | > 100
CC(C)[Si]1(C(C)C)OCC2OC(n3ccc(=O)[nH]c3=O)C([Se]c3ccccc3)C2O[Si](C(C)C)(C(C)C)O1 (centres undefined) | 7.79
O=C1NCN(c2ccccc2)C12CCN(CC1COc3ccccc3O1)CC2 (centres undefined) | > 100
O=C1OC([C@H](O)c2cccnc2)c2ccccc21 (some centres undefined) | > 10
CC(C)(C)OC(=O)N1CCCC1C(=O)NC(c1ccccc1)c1ccccc1 (centres undefined) | > 100
O=C1Cc2cn[nH]c2-c2ccccc2N1 | > 62
O=CNc1ccccc1OCCOc1ccccc1NC=O | > 100
C=CCN1CCC(c2cc(C(=O)OCC)[nH]c2-c2cc(C)no2)C1=O (centres undefined) | > 100
O=c1[nH][nH]c(=O)c2c1ccc1oc3ccccc3c12 | > 100
O=C1CSC(c2ccccc2O)N1c1ccc(-n2c(-c3ccccc3)nc3ccccc3c2=O)cc1 (centres undefined) | 37.5
Cc1ccc(C(=O)Oc2ccccc2)cc1N=NN(C)C | > 100
O=C1NC2(CCNCC2)Oc2ccccc21 | > 100
Cc1c(/C=N/NC(=S)N2CCCCC2)c(=O)n(-c2ccccc2)n1C | > 100
CC(C)(C)OC(=O)CCCCCNC(=O)CCCCCNC(=O)CCC(CN(CC(=O)OCc1ccccc1)CC(=O)OCc1ccccc1)N(CC(=O)OCc1ccccc1)CC(=O)OCc1ccccc1 (centres undefined) | > 100
O=[N+]([O-])/C(Cl)=C(/C(Cl)=C(Cl)Cl)N1CCOCC1 | 8.89
CN=c1sc2nc(C#N)c(C#N)nc2n1C | > 80.7
CC(C)OP(=O)(OC(C)C)C(C)(C)O | > 100
COC(=O)C(=O)Nc1cc2c3c(c1)Oc1cccc4c1C3(C)c1c(cccc1O2)O4 | > 100

tested on: SK-OV-3 ovarian; assay: inhibition of tumour cell growth, NCI panel, 48 h

Structure (SMILES) | TGI [µM]
O=C(Nc1ccccc1)OCCN=C1c2ccccc2CCc2ccccc21 | 92.3
COc1cc2cc(C(=O)N3CC(CCl)c4ccc([N+](C)(C)Cc5ccccc5[N+](=O)[O-])cc43)[nH]c2c(OC)c1OC (centres undefined) | 30.1
CC(C)[C@H]1NC(=O)[C@H]2N=C(S[C@H]2C)[C@@H]2CCCN2C(=O)[C@H](Cc2ccccc2)NC(=O)[C@@H]2CSC(=N2)[C@@H](Cc2ccccc2)NC(=O)[C@@H]2CSC1=N2 | > 50
O=C1Oc2ccccc2C(=O)/C1=C/N1C(=O)CNC1=S | > 100
CC1=NN(c2nc(N)nc(/C(C#N)=C\c3ccc(-c4ccc([N+](=O)[O-])cc4)o3)n2)C(C)(C)C1 | > 100
COc1ccc2nc3ccc(OC)cc3c(SCCCl)c2c1 | > 100
CC(Oc1ccccc1Cl)C(=O)NN1C(=O)CC(=O)N(c2ccc(Cl)cc2)C1=S (centres undefined) | > 100
CC(C)[Si]1(C(C)C)OCC2OC(n3ccc(=O)[nH]c3=O)C([Se]c3ccccc3)C2O[Si](C(C)C)(C(C)C)O1 (centres undefined) | 31.2
O=C1NCN(c2ccccc2)C12CCN(CC1COc3ccccc3O1)CC2 (centres undefined) | > 100
O=C1OC([C@H](O)c2cccnc2)c2ccccc21 (some centres undefined) | > 10
CC(C)(C)OC(=O)N1CCCC1C(=O)NC(c1ccccc1)c1ccccc1 (centres undefined) | > 100
O=C1Cc2cn[nH]c2-c2ccccc2N1 | > 100
O=CNc1ccccc1OCCOc1ccccc1NC=O | > 100
C=CCN1CCC(c2cc(C(=O)OCC)[nH]c2-c2cc(C)no2)C1=O (centres undefined) | > 100
O=c1[nH][nH]c(=O)c2c1ccc1oc3ccccc3c12 | > 100
O=C1CSC(c2ccccc2O)N1c1ccc(-n2c(-c3ccccc3)nc3ccccc3c2=O)cc1 (centres undefined) | 95.3
Cc1ccc(C(=O)Oc2ccccc2)cc1N=NN(C)C | > 100
O=C1NC2(CCNCC2)Oc2ccccc21 | > 100
Cc1c(/C=N/NC(=S)N2CCCCC2)c(=O)n(-c2ccccc2)n1C | > 100
CC(C)(C)OC(=O)CCCCCNC(=O)CCCCCNC(=O)CCC(CN(CC(=O)OCc1ccccc1)CC(=O)OCc1ccccc1)N(CC(=O)OCc1ccccc1)CC(=O)OCc1ccccc1 (centres undefined) | > 100
O=[N+]([O-])/C(Cl)=C(/C(Cl)=C(Cl)Cl)N1CCOCC1 | 27.3
CN=c1sc2nc(C#N)c(C#N)nc2n1C | 49.2
CC(C)OP(=O)(OC(C)C)C(C)(C)O | > 100
COC(=O)C(=O)Nc1cc2c3c(c1)Oc1cccc4c1C3(C)c1c(cccc1O2)O4 | > 100

tested on: UO-31 renal; assay: inhibition of tumour cell growth, NCI panel, 48 h

Structure (SMILES) | TGI [µM]
O=C(Nc1ccccc1)OCCN=C1c2ccccc2CCc2ccccc21 | 43.7
COc1cc2cc(C(=O)N3CC(CCl)c4ccc([N+](C)(C)Cc5ccccc5[N+](=O)[O-])cc43)[nH]c2c(OC)c1OC (centres undefined) | 5.17
CC(C)[C@H]1NC(=O)[C@H]2N=C(S[C@H]2C)[C@@H]2CCCN2C(=O)[C@H](Cc2ccccc2)NC(=O)[C@@H]2CSC(=N2)[C@@H](Cc2ccccc2)NC(=O)[C@@H]2CSC1=N2 | > 50
O=C1Oc2ccccc2C(=O)/C1=C/N1C(=O)CNC1=S | > 100
CC1=NN(c2nc(N)nc(/C(C#N)=C\c3ccc(-c4ccc([N+](=O)[O-])cc4)o3)n2)C(C)(C)C1 | > 100
COc1ccc2nc3ccc(OC)cc3c(SCCCl)c2c1 | > 100
CC(Oc1ccccc1Cl)C(=O)NN1C(=O)CC(=O)N(c2ccc(Cl)cc2)C1=S (centres undefined) | > 100
CC(C)[Si]1(C(C)C)OCC2OC(n3ccc(=O)[nH]c3=O)C([Se]c3ccccc3)C2O[Si](C(C)C)(C(C)C)O1 (centres undefined) | 21.5
O=C1NCN(c2ccccc2)C12CCN(CC1COc3ccccc3O1)CC2 (centres undefined) | > 100
O=C1OC([C@H](O)c2cccnc2)c2ccccc21 (some centres undefined) | > 10
CC(C)(C)OC(=O)N1CCCC1C(=O)NC(c1ccccc1)c1ccccc1 (centres undefined) | > 100
O=C1Cc2cn[nH]c2-c2ccccc2N1 | > 100
O=CNc1ccccc1OCCOc1ccccc1NC=O | > 100
C=CCN1CCC(c2cc(C(=O)OCC)[nH]c2-c2cc(C)no2)C1=O (centres undefined) | > 100
O=c1[nH][nH]c(=O)c2c1ccc1oc3ccccc3c12 | > 100
O=C1CSC(c2ccccc2O)N1c1ccc(-n2c(-c3ccccc3)nc3ccccc3c2=O)cc1 (centres undefined) | 77.2
Cc1ccc(C(=O)Oc2ccccc2)cc1N=NN(C)C | > 100
O=C1NC2(CCNCC2)Oc2ccccc21 | > 100
Cc1c(/C=N/NC(=S)N2CCCCC2)c(=O)n(-c2ccccc2)n1C | > 100
CC(C)(C)OC(=O)CCCCCNC(=O)CCCCCNC(=O)CCC(CN(CC(=O)OCc1ccccc1)CC(=O)OCc1ccccc1)N(CC(=O)OCc1ccccc1)CC(=O)OCc1ccccc1 (centres undefined) | > 100
O=[N+]([O-])/C(Cl)=C(/C(Cl)=C(Cl)Cl)N1CCOCC1 | 12.8
CN=c1sc2nc(C#N)c(C#N)nc2n1C | 51.3
CC(C)OP(=O)(OC(C)C)C(C)(C)O | > 100
COC(=O)C(=O)Nc1cc2c3c(c1)Oc1cccc4c1C3(C)c1c(cccc1O2)O4 | > 100

tested on: SK-MEL-28 melanoma; assay: inhibition of tumour cell growth, NCI panel, 48 h

Structure (SMILES) | TGI [µM]
O=C(Nc1ccccc1)OCCN=C1c2ccccc2CCc2ccccc21 | 28.7
COc1cc2cc(C(=O)N3CC(CCl)c4ccc([N+](C)(C)Cc5ccccc5[N+](=O)[O-])cc43)[nH]c2c(OC)c1OC (centres undefined) | 11.4
CC(C)[C@H]1NC(=O)[C@H]2N=C(S[C@H]2C)[C@@H]2CCCN2C(=O)[C@H](Cc2ccccc2)NC(=O)[C@@H]2CSC(=N2)[C@@H](Cc2ccccc2)NC(=O)[C@@H]2CSC1=N2 | > 50
O=C1Oc2ccccc2C(=O)/C1=C/N1C(=O)CNC1=S | > 100
CC1=NN(c2nc(N)nc(/C(C#N)=C\c3ccc(-c4ccc([N+](=O)[O-])cc4)o3)n2)C(C)(C)C1 | > 100
COc1ccc2nc3ccc(OC)cc3c(SCCCl)c2c1 | > 100
